Source: US20100113366A1, “USE OF PROLINE-RICH PEPTIDE DERIVED FROM HYPOTHALAMUS FOR THE MANUFACTURE OF A MEDICAMENT FOR THE TREATMENT AND/OR PROPHYLAXIS OF CATTLE LEUCOSIS” (priority 2005, published 2010)
Where no end group is shown, it is not given here.

Tested on: cows with leucosis
Experiment: hematological and cytomorphological blood indices of cows with leucosis after PRP-1 administration in vivo
Details: 48 h after 1st and 2nd administration; microscopic analysis
Description: The cows with leucosis were administered with the PRP-1 solution in concentration 1.57×10^−4 g in 1 ml in a dose of 4×10^−3 ml/kg live weight of animal twice in 48 h.
The blood samples were taken from the jugular vain of animal into the test tubes with anti-coagulant Trilon-B before administration, in 48 h after 1st and 2nd administrations, as well as in 33 days after the 2nd administration. The blood hematomorphological and cytomorphological studies were carried out according to the available methods of veterinary hematology.

Sequence: AGAPEPAEPAQPGVY [PRP-1, Ala-Gly-Ala-Pro-Glu-Pro-Ala-Glu-Pro-Ala-Gln-Pro-Gly-Val-Tyr]
- morphological changes of small lymphocytes with high resistance, neutrophils, eosinophils and monocytes in blood smears: no any morphological changes
